Experimental data as given in patent US7964352B2, “3′-OH unblocked nucleotides and nucleosides, base modified with labels and photocleavable, terminating groups and methods for their use in DNA sequencing” (priority 2006, dated 2011).
Read-outs that look alike come from different tables or passages of the source.

How the values were obtained:
[1] = biological target: T1, T[…] polymerase (Thermococcus sp., UniProt Q56366, A485L/D141A/E143A); assay: Polymerase end-point (PEP) assay, Therminator; type: biochemical, Thermococcus species 9°N-7
T1 construct: purchased
Excerpt: (§1) Numerous groups have employed qualitative, Sanger-based assays to estimate relative incorporation efficiencies of terminating nucleotide analogs compared to their natural nucleotide counterparts. Although useful, the ability to assay modified nucleotide analogs in the absence of natural nucleotides is not feasible using these assays. These two limitations led to a quantitative, polymerase end-point (PEP) assay, which is utilized in a high-throughput manner for screening numerous modified nucleotides against a number of well-characterized, commercially available polymerases. Identification of lead compounds with a specific DNA polymerase could then be prioritized for further kinetic studies. The PEP assay is designed with the polymerase concentration in excess of the primer/template complex (i.e., this complex is fully bounded with polymerase at the start of the titration), thereby limiting reaction to nucleotide binding and nucleotyl coupling steps. Limiting amounts of the desired nucleotide are then titrated across the appropriate concentration range (generally three orders of magnitude) to observe extension of a dye-labeled primer by gel electrophoresis. The end-point concentration is determined from a semi-log plot where the number of moles of substrate and product are equal, called the IC50 (i.e., incorporation concentration at 50%) value.
(§2) For all polymerases evaluated in this study, 40 nM of oligo-template (5′-TACGGAGCA-[…], interrogation base is underlined and bolded) was annealed to 5 nM BODIPY-FL labeled primer (5′-TTGTAAAACGACGGCCAGT) in 1× ThermoPol buffer (20 mM Tris-HCl, pH 8.8; 10 mM (NH4)2SO4, 10 mM KCl; 2 mM MgSO4; 0.1% Triton X-100, New England BioLabs) at 80° C. for 30 seconds, 57° C. for 30 seconds, and then cooled to 4° C. The primer/template complex is then diluted by one-half (i.e., its final concentration is 2.5 nM in a volume of 10 μL) by the addition of DNA polymerase, nucleotide analog, and ThermoPol buffer. This defines the lower limit of the IC50 value for nucleotide titrations to 1.25 nM (i.e., [primer]=[primer+1]). Polymerase reactions were incubated at their appropriate temperature for 10 minutes, then cooled to 4° C. and quenched with 10 μL of stop solution (98% deionized formamide; 10 mM Na2EDTA, pH 8.0; 25 mg/mL Blue Dextran, MW 2,000,000). Stopped reactions were heated to 90° C. for 30 seconds, and then placed on ice. […] The PEP assays were performed in triplicate for each DNA polymerase/nucleotide analog combination to calculate its IC50 values±one standard deviation.
(§3) The number of activity units for eight commercially available, 3′-exonuclease deficient (3′-exo-) DNA polymerases was first determined by titration with 2′-deoxyadenosine triphosphate (dATP, concentration range from 0.1 nM to 100 nM) with the goal of reaching the PEP IC50 limit of 1.25 nM (data not shown). In general, increasing the number of units reduced the IC50 values for dATP towards this limit, with exception with Taq, THERMINATOR™, and THERMINATOR™ II. For these enzymes, there was an increase in IC50 values for dATP with increasing enzyme concentration, which was not investigated further and presumed to be due to a direct relationship with increasing enzyme concentration and phosphorolysis. For these cases, the number of units used for subsequent PEP assays were those activity units that gave the lowest IC50 values for dATP.
(§4) WW1p129 and ddATP were then titrated using the PEP assay with the eight DNA polymerases (unit activities previously defined) in the concentration range of either 0.1 nM to 100 nM, 1 nM to 1μM, 10 nM to 10μM, or 100 nM to 100 μM (see Table 1). UV-light sensitive compounds were handled at all times in low light conditions to minimize conversion to dATP.

[2] = biological target: T2, Bst DNA polymerase (Geobacillus stearothermophilus, UniProt P52026); assay: Polymerase end-point (PEP) assay, Bst; type: biochemical
T2 construct: purchased
T2 sequence (P52026 1-876): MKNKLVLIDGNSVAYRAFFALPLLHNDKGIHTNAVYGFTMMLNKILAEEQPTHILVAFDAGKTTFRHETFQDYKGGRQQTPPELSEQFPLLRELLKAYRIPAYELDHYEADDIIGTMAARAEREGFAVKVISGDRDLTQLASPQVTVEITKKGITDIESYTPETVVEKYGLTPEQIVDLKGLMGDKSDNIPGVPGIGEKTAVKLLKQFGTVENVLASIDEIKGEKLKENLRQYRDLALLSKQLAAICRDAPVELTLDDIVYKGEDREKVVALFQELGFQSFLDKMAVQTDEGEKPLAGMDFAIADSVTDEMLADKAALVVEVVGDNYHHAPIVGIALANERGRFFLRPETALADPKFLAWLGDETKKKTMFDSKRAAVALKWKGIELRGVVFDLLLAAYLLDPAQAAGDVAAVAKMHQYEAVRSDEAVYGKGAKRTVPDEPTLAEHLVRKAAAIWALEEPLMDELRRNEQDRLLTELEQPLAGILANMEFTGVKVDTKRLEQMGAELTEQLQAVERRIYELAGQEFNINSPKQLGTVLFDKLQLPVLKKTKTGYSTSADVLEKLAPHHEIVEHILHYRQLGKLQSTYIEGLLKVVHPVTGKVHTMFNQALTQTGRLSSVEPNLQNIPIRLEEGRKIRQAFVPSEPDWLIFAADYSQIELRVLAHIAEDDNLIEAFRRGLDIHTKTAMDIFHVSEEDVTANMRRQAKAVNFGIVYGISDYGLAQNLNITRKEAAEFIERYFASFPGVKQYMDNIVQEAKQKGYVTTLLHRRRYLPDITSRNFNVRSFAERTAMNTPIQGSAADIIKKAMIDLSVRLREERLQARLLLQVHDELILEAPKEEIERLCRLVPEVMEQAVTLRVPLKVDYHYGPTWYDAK
Excerpt: as §1, §2, §3, §4

[3] = biological target: T3, Klenow (3′-exo-) DNA polymerase (Escherichia coli, UniProt P00582, D355A/E357A); assay: Polymerase end-point (PEP) assay, Klenow (3′-exo-); type: biochemical; conditions: Klenow (3′-exo-): 37° C.; incorporation concentration at 50%
T3 construct: Klenow(-exo-) DNA polymerase; purchased
Excerpt: as §1
(§5) For all polymerases evaluated in this study, 40 nM of oligo-template (5′-TACGGAGCA-[…], interrogation base is underlined and bolded) was annealed to 5 nM BODIPY-FL labeled primer (5′-TTGTAAAACGACGGCCAGT) in 1× ThermoPol buffer (20 mM Tris-HCl, pH 8.8; 10 mM (NH4)2SO4, 10 mM KCl; 2 mM MgSO4; 0.1% Triton X-100, New England BioLabs) at 80° C. for 30 seconds, 57° C. for 30 seconds, and then cooled to 4° C. The primer/template complex is then diluted by one-half (i.e., its final concentration is 2.5 nM in a volume of 10 μL) by the addition of DNA polymerase, nucleotide analog, and ThermoPol buffer. This defines the lower limit of the IC50 value for nucleotide titrations to 1.25 nM (i.e., [primer]=[primer+1]). […]

[4] = biological target: T4, Taq DNA polymerase (Thermus aquaticus, UniProt P19821); assay: Polymerase end-point (PEP) assay, Taq; type: biochemical; conditions: Taq: 68° C.; incorporation concentration at 50%
T4 construct: purchased
Excerpt: as §1, §5

[5] = biological target: T5, AMPLITAQ DNA polymerase, FS (Taq FS) (Thermus aquaticus, UniProt P19821, F667Y/G46D); assay: Polymerase end-point (PEP) assay, Taq FS; type: biochemical; conditions: Taq FS: 68° C.; incorporation concentration at 50%
T5 construct: purchased
Excerpt: as §1, §5

[6] = biological target: T6, T[…] DNA polymerase (Thermococcus sp., UniProt Q56366, A485L/D141A/E143A/Y409V); assay: Polymerase end-point (PEP) assay, Therminator II; type: biochemical, Thermococcus species 9°N-7; conditions: Therminator II: 75° C.; incorporation concentration at 50%
T6 construct: purchased
Excerpt: as §1, §5

[7] = biological target: T7, Vent (3′-exo-) DNA polymerase (Thermococcus litoralis, UniProt P30317, D141A/DEL1082-1471/DEL495-1032/E143A); assay: Polymerase end-point (PEP) assay, Vent (3′-exo-); type: biochemical
T7 construct: purchased
Excerpt: as §1, §5

[8] = biological target: T8, DeepVent (3′-exo-) DNA polymerase (Pyrococcus sp., UniProt Q51334, D141A/DEL493-1029/E143A); assay: Polymerase end-point (PEP) assay, DeepVent (3′-exo-); type: biochemical, Pyrococcus species GB-D
T8 construct: purchased
Excerpt: as §1, §5

[9] = Table 2, incorporation concentration at 50%, read-out: IC50 values, Therminator
[10] = Table 2, incorporation concentration at 50%, read-out: IC50 values, Bst
[11] = Bst: 65° C., IC50 = incorporation concentration at 50%, Table 1, read-out: IC50 values
[12] = Therminator: 75° C., incorporation concentration at 50%, Table 1, read-out: IC50 values
[13] = Vent (3′-exo-): 72° C., incorporation concentration at 50%, read-out: IC50 values
[14] = DeepVent (3′-exo-): 72° C., incorporation concentration at 50%, read-out: IC50 values

T8 sequence (Q51334 other isoform, or with tags, fused parts or gaps D141A/E143A/DEL493-1029): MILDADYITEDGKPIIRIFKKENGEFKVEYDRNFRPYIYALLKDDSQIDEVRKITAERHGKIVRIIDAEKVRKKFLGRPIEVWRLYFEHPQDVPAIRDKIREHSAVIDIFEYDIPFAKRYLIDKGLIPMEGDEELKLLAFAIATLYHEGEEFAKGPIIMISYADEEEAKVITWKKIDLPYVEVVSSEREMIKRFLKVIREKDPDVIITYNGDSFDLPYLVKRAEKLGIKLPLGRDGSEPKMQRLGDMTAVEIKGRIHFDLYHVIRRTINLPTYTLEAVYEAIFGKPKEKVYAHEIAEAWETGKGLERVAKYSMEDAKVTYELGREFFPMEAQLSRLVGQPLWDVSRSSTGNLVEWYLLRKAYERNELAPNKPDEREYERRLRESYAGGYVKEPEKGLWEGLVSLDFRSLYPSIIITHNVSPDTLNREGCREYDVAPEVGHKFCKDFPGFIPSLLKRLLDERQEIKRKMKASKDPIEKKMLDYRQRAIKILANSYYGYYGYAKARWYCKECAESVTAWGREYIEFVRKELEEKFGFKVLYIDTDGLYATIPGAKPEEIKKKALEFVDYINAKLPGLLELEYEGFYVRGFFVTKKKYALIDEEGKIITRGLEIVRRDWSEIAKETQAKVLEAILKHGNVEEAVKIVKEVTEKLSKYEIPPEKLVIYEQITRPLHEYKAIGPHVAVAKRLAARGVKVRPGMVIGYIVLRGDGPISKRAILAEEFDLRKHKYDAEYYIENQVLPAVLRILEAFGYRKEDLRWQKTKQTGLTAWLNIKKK
T7 sequence (P30317 other isoform, or with tags, fused parts or gaps D141A/E143A/DEL495-1032/DEL1082-1471): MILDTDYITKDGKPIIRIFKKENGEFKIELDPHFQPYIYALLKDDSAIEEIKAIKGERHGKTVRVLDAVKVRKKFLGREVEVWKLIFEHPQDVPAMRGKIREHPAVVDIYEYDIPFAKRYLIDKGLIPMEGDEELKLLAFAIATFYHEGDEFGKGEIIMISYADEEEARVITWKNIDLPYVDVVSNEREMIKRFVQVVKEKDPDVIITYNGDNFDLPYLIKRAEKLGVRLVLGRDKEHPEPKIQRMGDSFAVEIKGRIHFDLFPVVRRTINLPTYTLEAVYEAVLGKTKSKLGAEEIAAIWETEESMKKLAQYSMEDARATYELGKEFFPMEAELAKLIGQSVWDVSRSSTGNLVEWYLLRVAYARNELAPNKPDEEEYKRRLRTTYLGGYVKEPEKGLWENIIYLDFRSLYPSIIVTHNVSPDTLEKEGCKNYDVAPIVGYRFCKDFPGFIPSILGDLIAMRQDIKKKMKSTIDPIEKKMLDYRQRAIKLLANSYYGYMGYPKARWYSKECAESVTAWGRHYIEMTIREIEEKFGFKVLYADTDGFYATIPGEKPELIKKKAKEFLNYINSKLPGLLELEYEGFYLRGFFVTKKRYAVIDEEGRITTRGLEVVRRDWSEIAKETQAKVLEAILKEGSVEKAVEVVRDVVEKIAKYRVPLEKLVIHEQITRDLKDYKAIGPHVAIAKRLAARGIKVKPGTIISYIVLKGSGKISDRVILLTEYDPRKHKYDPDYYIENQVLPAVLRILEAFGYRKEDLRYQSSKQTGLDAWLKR
T1 sequence (Q56366 whole entry D141A/E143A/A485L): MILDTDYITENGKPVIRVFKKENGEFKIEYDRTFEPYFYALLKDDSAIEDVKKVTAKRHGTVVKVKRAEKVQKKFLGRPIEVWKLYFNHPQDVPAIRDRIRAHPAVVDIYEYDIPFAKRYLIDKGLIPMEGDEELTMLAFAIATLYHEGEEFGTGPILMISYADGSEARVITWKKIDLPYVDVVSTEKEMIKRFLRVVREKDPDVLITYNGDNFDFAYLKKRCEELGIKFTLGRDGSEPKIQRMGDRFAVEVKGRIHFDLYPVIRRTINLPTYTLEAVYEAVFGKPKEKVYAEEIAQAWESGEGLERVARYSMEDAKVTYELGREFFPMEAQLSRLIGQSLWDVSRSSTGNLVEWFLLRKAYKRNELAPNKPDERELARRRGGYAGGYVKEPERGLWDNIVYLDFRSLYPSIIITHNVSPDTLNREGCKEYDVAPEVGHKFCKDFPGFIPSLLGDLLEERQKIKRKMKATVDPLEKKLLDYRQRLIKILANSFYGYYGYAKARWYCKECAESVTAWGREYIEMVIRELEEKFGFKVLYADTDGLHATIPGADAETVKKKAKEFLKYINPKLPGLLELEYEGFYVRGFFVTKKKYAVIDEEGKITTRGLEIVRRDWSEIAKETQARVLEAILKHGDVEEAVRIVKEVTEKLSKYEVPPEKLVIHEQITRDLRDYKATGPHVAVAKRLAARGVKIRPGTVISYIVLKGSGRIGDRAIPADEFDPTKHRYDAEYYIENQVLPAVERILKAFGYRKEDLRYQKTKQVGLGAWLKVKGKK
T4 sequence (P19821 whole entry): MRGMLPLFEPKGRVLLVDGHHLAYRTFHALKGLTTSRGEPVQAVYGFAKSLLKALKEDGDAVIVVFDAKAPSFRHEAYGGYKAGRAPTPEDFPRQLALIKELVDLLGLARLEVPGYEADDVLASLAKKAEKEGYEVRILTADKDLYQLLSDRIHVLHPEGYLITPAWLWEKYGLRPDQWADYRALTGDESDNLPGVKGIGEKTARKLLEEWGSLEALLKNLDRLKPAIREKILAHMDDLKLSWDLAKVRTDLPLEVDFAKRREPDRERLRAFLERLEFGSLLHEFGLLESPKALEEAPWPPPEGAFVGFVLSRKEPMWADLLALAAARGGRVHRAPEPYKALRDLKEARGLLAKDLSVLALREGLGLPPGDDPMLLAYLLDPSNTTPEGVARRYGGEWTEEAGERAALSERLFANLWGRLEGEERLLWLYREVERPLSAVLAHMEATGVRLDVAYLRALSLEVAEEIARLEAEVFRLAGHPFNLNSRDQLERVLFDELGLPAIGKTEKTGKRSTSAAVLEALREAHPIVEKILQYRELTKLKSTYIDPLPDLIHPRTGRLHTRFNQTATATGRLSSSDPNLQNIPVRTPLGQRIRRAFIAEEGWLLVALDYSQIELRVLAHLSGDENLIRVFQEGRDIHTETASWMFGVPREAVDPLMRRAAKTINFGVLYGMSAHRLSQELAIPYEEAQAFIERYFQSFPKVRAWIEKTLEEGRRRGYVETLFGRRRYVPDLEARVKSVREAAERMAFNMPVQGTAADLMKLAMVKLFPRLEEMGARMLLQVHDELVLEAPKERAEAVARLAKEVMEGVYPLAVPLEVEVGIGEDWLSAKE
T5 sequence (P19821 whole entry G46D/F667Y): as the sequence (P19821 whole entry) above, with G46D, F667Y counted along it
T3 sequence (P00582 324-928 D355A/E357A): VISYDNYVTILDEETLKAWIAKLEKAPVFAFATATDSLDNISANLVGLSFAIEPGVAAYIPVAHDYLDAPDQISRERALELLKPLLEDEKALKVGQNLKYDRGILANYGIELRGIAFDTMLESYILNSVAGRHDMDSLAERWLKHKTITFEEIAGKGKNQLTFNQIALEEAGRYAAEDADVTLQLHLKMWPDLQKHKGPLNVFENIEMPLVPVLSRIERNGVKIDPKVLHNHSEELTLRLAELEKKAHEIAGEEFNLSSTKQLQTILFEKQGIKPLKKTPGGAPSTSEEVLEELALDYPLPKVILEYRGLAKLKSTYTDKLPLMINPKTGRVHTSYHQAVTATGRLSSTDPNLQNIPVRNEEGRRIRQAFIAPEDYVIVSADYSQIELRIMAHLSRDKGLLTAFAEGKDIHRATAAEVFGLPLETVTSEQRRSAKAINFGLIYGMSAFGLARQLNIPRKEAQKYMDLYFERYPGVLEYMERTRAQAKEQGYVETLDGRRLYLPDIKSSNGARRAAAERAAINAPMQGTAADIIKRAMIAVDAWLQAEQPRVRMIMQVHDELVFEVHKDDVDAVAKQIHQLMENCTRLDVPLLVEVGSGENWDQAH
T6 sequence (Q56366 whole entry D141A/E143A/Y409V/A485L): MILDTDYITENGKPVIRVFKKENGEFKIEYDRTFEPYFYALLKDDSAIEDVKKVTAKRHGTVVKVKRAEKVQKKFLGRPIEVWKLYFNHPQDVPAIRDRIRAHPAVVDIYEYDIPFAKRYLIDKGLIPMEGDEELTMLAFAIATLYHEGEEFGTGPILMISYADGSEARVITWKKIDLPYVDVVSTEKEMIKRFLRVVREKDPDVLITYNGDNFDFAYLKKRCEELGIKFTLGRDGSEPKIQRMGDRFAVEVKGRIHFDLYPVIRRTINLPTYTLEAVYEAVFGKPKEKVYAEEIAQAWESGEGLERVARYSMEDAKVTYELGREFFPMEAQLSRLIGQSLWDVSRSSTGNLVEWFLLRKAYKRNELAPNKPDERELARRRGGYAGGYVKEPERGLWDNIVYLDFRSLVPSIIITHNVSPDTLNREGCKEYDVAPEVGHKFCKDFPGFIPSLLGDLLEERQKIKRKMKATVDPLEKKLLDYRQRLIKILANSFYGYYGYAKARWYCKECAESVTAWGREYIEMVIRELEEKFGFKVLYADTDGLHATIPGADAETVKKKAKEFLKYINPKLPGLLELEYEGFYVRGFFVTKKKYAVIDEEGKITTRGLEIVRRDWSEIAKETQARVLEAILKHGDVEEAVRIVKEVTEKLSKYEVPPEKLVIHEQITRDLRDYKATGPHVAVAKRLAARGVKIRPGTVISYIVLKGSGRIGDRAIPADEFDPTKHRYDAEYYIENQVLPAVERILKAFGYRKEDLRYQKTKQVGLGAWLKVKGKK

“6-JOE Labeled 5-[4-(3-Amino-1-propynyl)-2-nitrobenzyloxymethyl]-2′-deoxyuridine-5′-triphosphate [WW2p075]” was tested, and the IC50 [1, 9] was 3.8 ± 1.1 nM.
Work on O=c1[nH]c(=O)n([C@H]2C[C@H](O)[C@@H](COP(=O)(O)OP(=O)(O)OP(=O)(O)O)O2)cc1COCc1ccccc1[N+](=O)[O-] [VL3p03085, 5-(2-Nitrobenzyloxymethyl)-2′-deoxyuridine-5′-triphosphate] yielded an IC50 [2, 10] of 138 ± 38 nM and an IC50 [1, 9] of 1.1 ± 0.1 nM.
O=[N+]([O-])c1ccccc1CNc1ncnc2c1ncn2[C@H]1C[C@H](O)[C@@H](COP(=O)(O)OP(=O)(O)OP(=O)(O)O)O1 [WW1p129, N^6-(2-Nitrobenzyl)-2′-deoxyadenosine-5′-triphosphate] was tested, and the IC50 [2, 11] was 21 ± 3 nM, the IC50 [2, 10] was 39 ± 9 nM and the IC50 [3] was 4.3 ± 0.2 nM. It also gave an IC50 [4] of 2100 ± 200 nM, an IC50 [5] of 890 ± 60 nM and an IC50 [1, 9] of 2.5 ± 0.4 nM. For the same compound, the IC50 [1, 12] was 3.1 ± 0.4 nM, the IC50 [6] was 7.8 ± 0.7 nM and the IC50 [7, 13] was 2.1 ± 0.2 nM. It also gave an IC50 [8, 14] of 11 ± 0.6 nM.
Work on O=c1nc(NCc2ccccc2[N+](=O)[O-])ccn1[C@H]1C[C@H](O)[C@@H](COP(=O)(O)OP(=O)(O)OP(=O)(O)O)O1 [WW2p044, N^4-(2-Nitrobenzyl)-2′-deoxycytidine-5′-triphosphate] yielded an IC50 [2, 10] of 57 ± 11 nM and an IC50 [1] of 1.8 ± 0.2 nM.
For Nc1nc(OCc2ccccc2[N+](=O)[O-])c2ncn([C@H]3C[C@H](O)[C@@H](COP(=O)(O)OP(=O)(O)OP(=O)(O)O)O3)c2n1 [WW2p077, O^6-(2-Nitrobenzyl)-2′-deoxyguanosine-5′-triphosphate], the IC50 [2, 10] was 3800 ± 200 nM and the IC50 [1, 9] was 6.9 ± 0.5 nM.
With CN(C)c1ccc2c(-c3cc(C(=O)NCC#Cc4ccc(CNc5ccn([C@H]6C[C@H](O)[C@@H](COP(=O)(O)OP(=O)(O)OP(=O)(O)O)O6)c(=O)n5)c([N+](=O)[O-])c4)ccc3C(=O)[O-])c3ccc(=[N+](C)C)cc-3oc2c1 [WW2p080, 6-TAMRA Labeled N^4-[4-(3-Amino-1-propynyl)-2-nitrobenzyl]-2′-deoxycytidine-5′-triphosphate] the IC50 [1, 9] was 3 ± 0.6 nM.
With Nc1nc(OCc2ccc(C#CCNC(=O)c3ccc(C(=O)[O-])c(C4=c5cc6c7c(c5Oc5c4cc4c8c5CCCN8CCC4)CCC[N+]=7CCC6)c3)cc2[N+](=O)[O-])c2ncn([C@H]3C[C@H](O)[C@@H](COP(=O)(O)OP(=O)(O)OP(=O)(O)O)O3)c2n1 [WW2p121, 6-ROX Labeled O^6-[4-(3-Amino-1-propynyl)-2-nitrobenzyl]-2′-deoxyguanosine-5′-triphosphate] the IC50 [1] was 6.3 ± 0.4 nM.
Compound Nc1ncnc2c1ncn2[C@H]1C[C@H](O)[C@@H](COP(=O)(O)OP(=O)(O)OP(=O)(O)O)O1 [dATP, 2′-deoxyadenosine triphosphate] has an IC50 [3] of 1.6 ± 0.1 nM, an IC50 [4] of 5.5 ± 0.5 nM and an IC50 [5] of 5.3 ± 0.1 nM. It also gave an IC50 [1, 12] of 2.3 ± 0.3 nM, an IC50 [6] of 4.4 ± 0.6 nM and an IC50 [7] of 1.6 ± 0.2 nM. For the same compound, the IC50 [8] was 2.8 ± 0.2 nM.
Compound Nc1ncnc2c1ncn2[C@H]1CC[C@@H](COP(=O)(O)OP(=O)(O)OP(=O)(O)O)O1 [ddATP] has an IC50 [2, 11] of 370 ± 30 nM, an IC50 [3] of 29 ± 5 nM and an IC50 [4] of 12600 ± 900 nM. The IC50 [5] was 3.3 ± 0.1 nM, the IC50 [1, 12] was 9.7 ± 1.1 nM and the IC50 [6] was 230 ± 30 nM. The IC50 [7, 13] was 550 ± 40 nM and the IC50 [8, 14] was 3400 ± 400 nM.
